Results taken from paper PMC12072202, “Identification of Novel HPK1 Hit Inhibitors: From In Silico Design to In Vitro Validation” (International Journal of Molecular Sciences, 2025).
Several values for one entry are separate records, joined by “and”; a condition that tells them apart may be missing. Equal entries are not always repeated. Where two headings read alike, the source gives them in different places.

Biological target: T1, human recombinant active HPK1 (Homo sapiens, UniProt Q92918)
T1 construct: purchased Reaction Biology Corp., Malvern, PA, USA (contract assay)
Assay: radiometric HotSpot kinase assay (33P-ATP, myelin basic protein substrate)
Format: biochemical
Details: for inhibition at 25 µM: 25 µM compound; for inhibition at 25 µM / inhibition at 50 µM: duplicate; for inhibition at 50 µM: 50 µM compound
Experimental: The in vitro inhibitory activity of the fifteen purchased compounds against recombinant human HPK1 was evaluated using a radiometric HotSpot^TM kinase assay. The results were expressed as a percentage of the remaining kinase activity relative to its activity in negative control reactions (DMSO). […] Six hits (ISR-03, ISR-04, ISR-05, ISR-10, ISR-13, and ISR-11) were selected for IC50 value determination.
The selected compounds were purchased from ASINEX (ASINEX, Amsterdam, The Netherlands) and OTAVA lead-like (OTAVA Ltd., Vaughan, ON, Canada) via local vendors. […] In brief, this assay was performed by preparing the kinase substrate (myelin basic protein) with a concentration of 20 µM in freshly prepared base reaction buffer (20.0 mM Hepes (pH 7.5), 10.0 mM MgCl2, 1.0 mM EGTA, 0.01% Brij35, 0.02 mg/mL BSA, 0.1 mM Na3VO4, 2.0 mM DTT, and 1% DMSO). Then, the kinase enzyme was delivered into the substrate solution by gently mixing, followed by adding the tested compounds dissolved in 100% DMSO using the Echo550 liquid handler and incubated for 20 min at room temperature. Finally, the reaction was initiated by the addition of ^33P-γ-ATP with a concentration of 10.0 µM and incubated for 2 h at room temperature. The percentage of kinase activity was detected using the P81 filter-binding method. For IC50 determination, the compounds’ inhibitory activity was tested at 10 concentrations (100 µM, 33.3 µM, 11.10 µM, 3.70 µM, 1.23 µM, 0.412 µM, 0.137 µM, 45.70 nM, 15.20 nM, and 5.08 nM) in one independent experiment in duplicate mode and prepared using 3-fold serial dilutions. The percentage of remaining kinase activity in tested samples was determined first, and then Prism GraphPad software version 10.2.0 (nonlinear regression/variable slope) was used to obtain the IC50 values and curve fits.

[1] = 10 concentrations, 3-fold dilution from 100 µM, 10 µM ATP, mean ± SD where given, read-out: IC50
[2] = Prism fit table of single inhibition curve (A/B replicate), Figure 3, unit inferred, read-out: EC50 (the source's name)

T1 sequence (Q92918 whole entry): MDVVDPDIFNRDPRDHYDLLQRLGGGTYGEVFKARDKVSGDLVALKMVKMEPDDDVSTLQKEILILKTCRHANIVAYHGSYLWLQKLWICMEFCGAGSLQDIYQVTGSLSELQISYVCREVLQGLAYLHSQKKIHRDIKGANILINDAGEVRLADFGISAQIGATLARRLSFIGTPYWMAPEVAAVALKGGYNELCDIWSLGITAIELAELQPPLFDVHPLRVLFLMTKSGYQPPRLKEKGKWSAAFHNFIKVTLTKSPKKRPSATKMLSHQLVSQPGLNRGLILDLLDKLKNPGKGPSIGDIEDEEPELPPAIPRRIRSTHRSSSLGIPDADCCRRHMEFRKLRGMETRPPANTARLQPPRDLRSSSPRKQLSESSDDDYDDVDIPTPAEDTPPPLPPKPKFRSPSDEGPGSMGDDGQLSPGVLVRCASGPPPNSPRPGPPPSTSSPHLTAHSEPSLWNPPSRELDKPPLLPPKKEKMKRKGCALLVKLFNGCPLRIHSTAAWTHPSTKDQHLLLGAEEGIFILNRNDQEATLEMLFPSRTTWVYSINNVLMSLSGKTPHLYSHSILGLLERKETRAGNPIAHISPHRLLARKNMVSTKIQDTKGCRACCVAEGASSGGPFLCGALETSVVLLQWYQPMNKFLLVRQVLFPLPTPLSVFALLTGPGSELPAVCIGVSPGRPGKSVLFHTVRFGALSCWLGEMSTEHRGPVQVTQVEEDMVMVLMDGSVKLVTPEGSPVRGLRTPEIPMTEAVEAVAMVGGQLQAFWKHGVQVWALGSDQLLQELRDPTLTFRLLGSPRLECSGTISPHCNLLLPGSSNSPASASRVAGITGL

| SMILES | inhibition at 25 µM (10 µM ATP) [%] | inhibition at 50 µM (10 µM ATP) [%] | IC50 [1] [µM] | IC50 [2] |
| --- | --- | --- | --- | --- |
| COc1ccc2[nH]c(=O)c(CNc3ccccc3NC(C)=O)cc2c1 [ISR-03] | 26.6 | 52.4 | 43.9 | 44 µM and 43.8 µM |
| CCCNC(=O)c1cc2c(=O)n3cccc(C)c3nc2s1 [ISR-04] | 2.44 | 10.1 | > 100 |  |
| Cc1cccn2c(=O)c3cc(C(=O)Nc4ccccc4C(N)=O)sc3nc12 [ISR-05] | 0 | 13.9 | 24.2 | 20.6 µM and 27.7 µM |
